According to PubChem BioAssay AID1963445 (Molecular Pharmacology Branch, DTP, NCI, 2024):

Test system: MCF7 complex spheroid growth, % test/control
Assay: Anticancer human tumor MCF7 cell line growth inhibition [Asc];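 also: spheroids exposed to compounds for 7 days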;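 as to viability, T/C: 100% = DMSO vehicle control wells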
Settings: for IC50: curve of first compound; for viability, T/C: stronger effect = lower value
In short: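 Complex spheroids combining tumor cells with HUVEC endothelial cells and human MSCs, at 37 degrees C, 5% CO2; agents tested alone or combined, half-log dilutions from at or near clinical Cmax, or 10 microM if Cmax unknown.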

[1] = second compound 0.0316 µM, first compound 0.0316 µM
[2] = second compound 0.0316 µM, first compound 0.1 µM
[3] = second compound 0.0316 µM, first compound 0.316 µM
[4] = second compound 0.0316 µM, first compound 1 µM
[5] = second compound 0.1 µM, first compound 0.0316 µM
[6] = second compound 0.1 µM, first compound 0.1 µM
[7] = second compound 0.1 µM, first compound 0.316 µM
[8] = second compound 0.1 µM, first compound 1 µM
[9] = second compound 0.316 µM, first compound 0.0316 µM
[10] = second compound 0.316 µM, first compound 0.1 µM
[11] = second compound 0.316 µM, first compound 0.316 µM
[12] = second compound 0.316 µM, first compound 1 µM
[13] = second compound 1 µM, first compound 0.0316 µM
[14] = second compound 1 µM, first compound 0.1 µM
[15] = second compound 1 µM, first compound 0.316 µM
[16] = second compound 1 µM, first compound 1 µM
[17] = second compound 3.16 µM, first compound 0.0316 µM
[18] = second compound 3.16 µM, first compound 0.1 µM
[19] = second compound 3.16 µM, first compound 0.316 µM
[20] = second compound 3.16 µM, first compound 1 µM
[21] = second compound 10 µM, first compound 0.0316 µM
[22] = second compound 10 µM, first compound 0.1 µM
[23] = second compound 10 µM, first compound 0.316 µM
[24] = second compound 10 µM, first compound 1 µM

SMILES: C#Cc1c(F)ccc2cc(O)cc(-c3ncc4c(N5CC6CCC(C5)N6)nc(OCC56CCCN5CC(F)C6)nc4c3F)c12 (centres undefined) + Cc1c(S(C)(=O)=O)c(-c2cc(F)cc(N3CCN(c4ccc(NS(=O)(=O)c5ccc(NC(CCN6CCC(C(=O)OCCCP(=O)(O)O)CC6)CSc6ccccc6)c(S(=O)(=O)C(F)(F)F)c5)cc4)CC3)c2)c(-c2ccc(Cl)cc2)n1C(C)C
- IC50 (second compound 0.0316 µM): > 10 µM
- IC50 (second compound 0.1 µM): > 10 µM
- IC50 (second compound 0.316 µM): > 10 µM
- IC50 (second compound 1 µM): > 10 µM
- IC50 (second compound 3.16 µM): > 10 µM
- IC50 (second compound 10 µM): > 10 µM
- viability, T/C [1]: 96.2%
- viability, T/C [2]: 90%
- viability, T/C [3]: 89.6%
- viability, T/C [4]: 92.3%
- viability, T/C (second compound 0.0316 µM, first compound 3.16 µM): 98.4%
- viability, T/C (second compound 0.0316 µM, first compound 10 µM): 91.8%
- viability, T/C [5]: 104%
- viability, T/C [6]: 103%
- viability, T/C [7]: 87.5%
- viability, T/C [8]: 84.1%
- viability, T/C (second compound 0.1 µM, first compound 3.16 µM): 83.4%
- viability, T/C (second compound 0.1 µM, first compound 10 µM): 82.5%
- viability, T/C [9]: 91%
- viability, T/C [10]: 83%
- viability, T/C [11]: 73.7%
- viability, T/C [12]: 86.7%
- viability, T/C (second compound 0.316 µM, first compound 3.16 µM): 88.6%
- viability, T/C (second compound 0.316 µM, first compound 10 µM): 86.5%
- viability, T/C [13]: 86%
- viability, T/C [14]: 95.9%
- viability, T/C [15]: 81.9%
- viability, T/C [16]: 82.6%
- viability, T/C (second compound 1 µM, first compound 3.16 µM): 79%
- viability, T/C (second compound 1 µM, first compound 10 µM): 85.7%
- viability, T/C [17]: 80.3%
- viability, T/C [18]: 77.7%
- viability, T/C [19]: 88.7%
- viability, T/C [20]: 72.5%
- viability, T/C (second compound 3.16 µM, first compound 3.16 µM): 74.1%
- viability, T/C (second compound 3.16 µM, first compound 10 µM): 80.5%
- viability, T/C [21]: 272%
- viability, T/C [22]: 226%
- viability, T/C [23]: 251%
- viability, T/C [24]: 292%
- viability, T/C (second compound 10 µM, first compound 3.16 µM): 249%
- viability, T/C (second compound 10 µM, first compound 10 µM): 196%

SMILES: CCN1CCN(Cc2ccc(Nc3ncc(F)c(-c4cc(F)c5nc(C)n(C(C)C)c5c4)n3)nc2)CC1 + Cc1c(S(C)(=O)=O)c(-c2cc(F)cc(N3CCN(c4ccc(NS(=O)(=O)c5ccc(NC(CCN6CCC(C(=O)OCCCP(=O)(O)O)CC6)CSc6ccccc6)c(S(=O)(=O)C(F)(F)F)c5)cc4)CC3)c2)c(-c2ccc(Cl)cc2)n1C(C)C
- IC50 (second compound 0.0316 µM): > 1 µM
- IC50 (second compound 0.1 µM): > 1 µM
- IC50 (second compound 0.316 µM): > 1 µM
- IC50 (second compound 1 µM): > 1 µM
- IC50 (second compound 3.16 µM): > 1 µM
- IC50 (second compound 10 µM): > 1 µM
- viability, T/C (second compound 0.0316 µM, first compound 0.00316 µM): 101%
- viability, T/C (second compound 0.0316 µM, first compound 0.01 µM): 96.7%
- viability, T/C [1]: 106%
- viability, T/C [2]: 95.6%
- viability, T/C [3]: 91.4%
- viability, T/C [4]: 72.8%
- viability, T/C (second compound 0.1 µM, first compound 0.00316 µM): 92.8%
- viability, T/C (second compound 0.1 µM, first compound 0.01 µM): 86%
- viability, T/C [5]: 86.3%
- viability, T/C [6]: 85.2%
- viability, T/C [7]: 101%
- viability, T/C [8]: 87.3%
- viability, T/C (second compound 0.316 µM, first compound 0.00316 µM): 100%
- viability, T/C (second compound 0.316 µM, first compound 0.01 µM): 94.2%
- viability, T/C [9]: 98.8%
- viability, T/C [10]: 95%
- viability, T/C [11]: 94.6%
- viability, T/C [12]: 69.1%
- viability, T/C (second compound 1 µM, first compound 0.00316 µM): 91.6%
- viability, T/C (second compound 1 µM, first compound 0.01 µM): 98.9%
- viability, T/C [13]: 79.5%
- viability, T/C [14]: 88.4%
- viability, T/C [15]: 103%
- viability, T/C [16]: 69.2%
- viability, T/C (second compound 3.16 µM, first compound 0.00316 µM): 90.2%
- viability, T/C (second compound 3.16 µM, first compound 0.01 µM): 85.7%
- viability, T/C [17]: 92.8%
- viability, T/C [18]: 88.5%
- viability, T/C [19]: 92.1%
- viability, T/C [20]: 73.1%
- viability, T/C (second compound 10 µM, first compound 0.00316 µM): 136%
- viability, T/C (second compound 10 µM, first compound 0.01 µM): 124%
- viability, T/C [21]: 182%
- viability, T/C [22]: 134%
- viability, T/C [23]: 114%
- viability, T/C [24]: 61.6%
